The test system of this assay is layer V pyramidal neurons in PFC. The assay can be described thus: Whole cell patch clamp recording of 5-HT- and Hcrt-induced EPSCs in brain slices after oral dosing. The format is in vivo, rat. The following applies: Example H, NV-5138 160 mg/kg oral single dose. Here is the method:
Study Design: Sixteen (16) male rats weighing between 175 and 200 g were randomized into 2 study groups (n=8), following a 5-day acclimation period. On study day 0, rats received a single dose of either NV vehicle (Veh, 0.5% methylcellulose/0.1% Tween-80) or NV-5138 (160 mg/kg), by oral gavage. On day 1, 24 hrs after dosing, rats were sacrificed, and brain slices were prepared and subjected to whole cell patch clamp recording of layer V pyramidal neurons in PFC.
Preparation of Test Articles: NV-5138 (Navitor, Lot #07) was prepared by dissolving in Veh (0.5% methylcellulose/0.1% Tween-80) at a concentration of 50 mg/mL. The dosing volume based on the weight of the animal (3.2 mL/kg) was administered by oral gavage to study animals. Test articles were prepared the day of dosing.
Brain Slice Preparation: Brain slices were prepared according to published procedures (Liu, R. J. et al., J. Neurosci. 22(21): 9453-9464 (2002)). Briefly, rats were anesthetized with chloral hydrate (400 mg/kg, i.p.), in adherence to protocols approved by the Yale Animal Care and Use Committee. After decapitation, the brains were removed rapidly and placed in ice-cold (4° C.) artificial cerebrospinal fluid (ACSF) in which sucrose (252 mM) was substituted for NaCl (sucrose-ACSF) to prevent cell swelling. A block of tissue containing PFC was dissected and coronal slices (400 μm) were cut in sucrose-ACSF with an oscillating-blade tissue sheer (Leica VT1000S). After placement of the slice in a submerged recording chamber, the bath temperature was raised to 32° C. Known concentrations of drugs dissolved in ACSF, applied through a stopcock arrangement at a fast flow rate (4 mL/min), reached the slice within 7-10 s. […] A recovery period of ˜1-2 h was allowed before commencement of recording.
Electrophysiology Recording. […] Series resistance, monitored throughout the experiment, was usually between 4 and 8 MΩ. […]

As to `CC(C)(C[C@H](N)C(=O)O)C(F)F` [NV-5138], for the setting “FIG. 31, 24 hrs”, the “amplitude of 5-HT- and Hcrt-induced EPSCs (cumulative probability distribution)” value is on record as “on frequency but not amplitude”. For the same compound, where the note is “24 hrs after dosing”, the “frequency of 5-HT-induced EPSCs relative to vehicle-treated rats” value is “significantly increased” and the “frequency of Hcrt-induced EPSCs relative to vehicle-treated rats” value is listed as “significantly increased”.

(Values after US20210228523A1, “MODULATORS OF SESTRIN-GATOR2 INTERACTION AND USES THEREOF” (Navitor Pharmaceuticals, Inc., priority 2017, published 2021).)
